Measured values taken from BindingDB's records for doi:10.7270/Q2NS0S90 (The Scripps Research Institute Molecular Screening Center, 2009).
pIC50: −log10 of the molar value.

Target: VIM-2 metallo β-lactamase (Pseudomonas aeruginosa, UniProt Q9K2N0)
Experiment: VIM-2 CCF2 hydrolysis inhibition, assay artifact filter – biochemical, FRET readout, CCF2 substrate, artefact control for selective VIM-2 inhibitor project, dose response (AID 1926)

First: COc1ccc(OC)c(C2C(C(=O)c3ccco3)C(=O)C(=O)N2Cc2cccnc2)c1 (configuration not stated) [2-(2,5-dimethoxyphenyl)-3-(furan-2-carbonyl)-4-hydroxy-1-(pyridin-3-ylmethyl)-2H-pyrrol-5-one]
Second: COc1ccc(C(=O)C2C(=O)C(=O)N(Cc3ccco3)C2c2cc(OC)ccc2OC)cc1 (configuration not stated) [(4E)-5-(2,5-dimethoxyphenyl)-1-(2-furanylmethyl)-4-[hydroxy-(4-methoxyphenyl)methylidene]pyrrolidine-2,3-dione]
The pIC50 of the first is 0.90 log units higher: 6.15 for the first, 5.25 for the second. The first is the more potent here.

Compared with `O=C1C(=O)N(Cc2cccnc2)C(c2ccccn2)C1C(=O)c1cccs1` (configuration not stated) [3-hydroxy-5-(2-pyridinyl)-1-(3-pyridinylmethyl)-4-(2-thienylcarbonyl)-1,5-dihydro-2H-pyrrol-2-one], `O=C1C(=O)N(Cc2cccnc2)C(c2ccccn2)C1C(=O)c1ccccc1` (configuration not stated) [(4Z)-4-[hydroxy(phenyl)methylene]-5-(2-pyridyl)-1-(3-pyridylmethyl)pyrrolidine-2,3-quinone] is 0.34 log units higher in pIC50: 5.32 for the first, 5.66 for the second.

Going from `O=C1C(=O)N(Cc2cccnc2)C(c2ccccn2)C1C(=O)c1ccc(F)cc1` (configuration not stated) [(4Z)-4-[(4-fluorophenyl)-hydroxy-methylene]-5-(2-pyridyl)-1-(3-pyridylmethyl)pyrrolidine-2,3-quinone] to `COc1ccc(OC)c(C=NNC(=O)Cc2c(C)[nH][nH]c2=O)c1` [SMR000147372], the pIC50 falls from 6.03 to 5.67 (0.36 log units).

`COc1cc(OC)c(OC)cc1C=NNC(=O)Cc1c(C)[nH][nH]c1=O` [MLS000555854] showed a pIC50 of 5.84.
